Assay results: patent US5736565A, “Therapeutic compounds suitable for the treatment of diseases connected with glutathione deficiency, process for their preparation, and pharmaceutical compositions containing same” (Prospa B.V., priority 1992, dated 1998)
Like-named read-outs stand apart in the source and are kept apart here. Peptide text beside a SMILES is read from it.

How the values were obtained:
hepatic GSH = test: Test No. 1: protection from ethanol acute administration, hepatic GSH content; assay type: in vivo, male albino Wistar rats; parameters: GSH Content: unit not given beside the values; details: for GSH Content: liver, ethanol 3 g/kg i.p.
Method: Protection from ethanol acute administration […] Male albino Wistar rats weighing between 180 and 230 g were used. All animals were fasted for 24 hours prior to administration of isotonic solution, ethanol or ethanol combined with the test substances. As concerns the test substances, rats were intraperitoneally (i.p.) injected with compound of formula I (R=CH3) at doses of 10, 30, and 50 mg/kg and, for purposes of comparison, with the single constituents of compound (I) (R=CH3), […] (O-PRO) and L-cysteine (CIS), both at a 50 mg/kg dose. One hour after administration of the test substance, ethanol was injected i.p. at the dose of 3 g/kg. Thirty minutes later, the animals were sacrificed by decapitation and their liver was excised. […] Orwar et al., J. Chromatrogr., 556, 39-55 (1991).

hepatocytes = test: Tests in vitro: vitality of isolated rat hepatocytes; assay type: cell-based; details: for viability at 250 µM / viability at 500 µM / viability at 1000 µM / viability at 2500 µM / viability at 5000 µM: Rattus norvegicus, Hepatocyte, read-out: Cells vitality; for viability at 1000 µM: DEM + 1.0 mM; for viability at 5000 µM: DEM + 5.0 mM
Method: The experimental model envisages the isolation of hepatic parenchymal cells of rats following perfusion, with collagenase, of the isolated organ. Prior to each test, hepatocytes vitality was quantified by Tripan Blue […]. Only the cells with a vitality greater than 90% were utilized. Hepatocytes were resuspended, at a concentration of 10^6 cells/ml, in a saline medium (Krebs Heinseleit) at ph 7.4, and then placed into rotating flasks in the presence of O2 (95%) and CO2 (5%), at 37° C. Cells keep vital for 5-6 hours at least.
[…] The cells were then washed for 30 min. and incubated with various concentrations of the test substance (from 0.25 to 5 mM).
By this experimental model it is possible to test the effect of the substance by evaluating the hepatic functionality determined by measurements of the vitality (Tables Nos. 3, 4, and 5) and of glutathione content (Tables 6, 7, and 8).
In the Tables 3-8 herein below reported, the controls are represented by normal hepatocytes, not treated either with DEM or with compound (I).

For `CC(=O)SC[C@H](NC(=O)[C@@H]1CCC(=O)N1)C(=O)O` [PSC, 2-(S)-(2-pyrrolidone-5-(S)-carbonyl amido)-3-acetylmercapto propionic acid] (HELM PEPTIDE1{[Glp].C}|PEPTIDE2{[ac]}$PEPTIDE1,PEPTIDE2,2:R3-1:R2$$$V2.0), the “hepatic glutathione formation (in words)” value (hepatic GSH; ethanol-treated rats) was “enhances hepatic glutathione formation nearly to physiological levels”, the “GSH Content” value (hepatic GSH; test substance 10 mg/kg i.p.) was 3.6 ± 0.3 and the “GSH Content” value (hepatic GSH; test substance 30 mg/kg i.p.) was 4.3 ± 0.6. For the same compound, the “GSH Content” value (hepatic GSH; test substance 50 mg/kg) was 5.8 ± 0.4, the viability at 250 µM (hepatocytes; 0 h, DEM + 0.25 mM, 0 time (Table 4)) was 95% and the viability at 500 µM (hepatocytes; 0 h, DEM + 0.50 mM, 0 time (Table 4)) was 95%. For the same compound, the viability at 1000 µM (hepatocytes; 0 h, 0 time (Table 5)) was 96%, the viability at 2500 µM (hepatocytes; 0 h, DEM + 2.5 mM, 0 time (Table 5)) was 96% and the viability at 5000 µM (hepatocytes; 0 h, 0 time (Table 5)) was 96%. For the same compound, the viability at 250 µM (hepatocytes; 0 h, no DEM, 0.25 mM, 0 time) was 100%, the viability at 500 µM (hepatocytes; 0 h, no DEM, 0.50 mM, 0 time) was 100% and the viability at 2500 µM (hepatocytes; 0 h, no DEM, 2.5 mM, 0 time) was 100%. The viability at 250 µM (hepatocytes; 0.5 h, DEM + 0.25 mM, 30 min (Table 4)) was 90%, the viability at 500 µM (hepatocytes; 0.5 h, DEM + 0.50 mM, 30 min (Table 4)) was 88% and the viability at 1000 µM (hepatocytes; 0.5 h, 30 min (Table 5)) was 92%. For the same compound, the viability at 2500 µM (hepatocytes; 0.5 h, DEM + 2.5 mM, 30 min (Table 5)) was 89%, the viability at 5000 µM (hepatocytes; 0.5 h, 30 min (Table 5)) was 88% and the viability at 250 µM (hepatocytes; 0.5 h, no DEM, 0.25 mM, 30 min) was 101%. The viability at 500 µM (hepatocytes; 0.5 h, no DEM, 0.50 mM, 30 min) was 101%, the viability at 2500 µM (hepatocytes; 0.5 h, no DEM, 2.5 mM, 30 min) was 94% and the viability at 250 µM (hepatocytes; 1 h, DEM + 0.25 mM, 1 hr (Table 4)) was 87%. For the same compound, the viability at 500 µM (hepatocytes; 1 h, DEM + 0.50 mM, 1 hr (Table 4)) was 85%, the viability at 1000 µM (hepatocytes; 1 h, 1 hr (Table 5)) was 90% and the viability at 2500 µM (hepatocytes; 1 h, DEM + 2.5 mM, 1 hr (Table 5)) was 84%. The viability at 5000 µM (hepatocytes; 1 h, 1 hr (Table 5)) was 84%, the viability at 250 µM (hepatocytes; 1 h, no DEM, 0.25 mM, 1 hr) was 98% and the viability at 500 µM (hepatocytes; 1 h, no DEM, 0.50 mM, 1 hr) was 100%. The viability at 2500 µM (hepatocytes; 1 h, no DEM, 2.5 mM, 1 hr) was 95%, the viability at 250 µM (hepatocytes; 2 h, DEM + 0.25 mM, 2 hrs (Table 4)) was 86% and the viability at 500 µM (hepatocytes; 2 h, DEM + 0.50 mM, 2 hrs (Table 4)) was 84%. The viability at 1000 µM (hepatocytes; 2 h, 2 hrs (Table 5)) was 89%, the viability at 2500 µM (hepatocytes; 2 h, DEM + 2.5 mM, 2 hrs (Table 5)) was 83.5% and the viability at 5000 µM (hepatocytes; 2 h, 2 hrs (Table 5)) was 82%. For the same compound, the viability at 250 µM (hepatocytes; 2 h, no DEM, 0.25 mM, 2 hrs) was 100%, the viability at 500 µM (hepatocytes; 2 h, no DEM, 0.50 mM, 2 hrs) was 101% and the viability at 2500 µM (hepatocytes; 2 h, no DEM, 2.5 mM, 2 hrs) was 95%. For the same compound, the viability at 250 µM (hepatocytes; 4 h, DEM + 0.25 mM, 4 hrs (Table 4)) was 87%, the viability at 500 µM (hepatocytes; 4 h, DEM + 0.50 mM, 4 hrs (Table 4)) was 85% and the viability at 1000 µM (hepatocytes; 4 h, 4 hrs (Table 5)) was 88%. It also gave a viability at 2500 µM (hepatocytes; 4 h, DEM + 2.5 mM, 4 hrs (Table 5)) of 82%, a viability at 5000 µM (hepatocytes; 4 h, 4 hrs (Table 5)) of 80% and a viability at 250 µM (hepatocytes; 4 h, no DEM, 0.25 mM, 4 hrs) of 116%. The viability at 500 µM (hepatocytes; 4 h, no DEM, 0.50 mM, 4 hrs) was 114%, the viability at 2500 µM (hepatocytes; 4 h, no DEM, 2.5 mM, 4 hrs) was 104% and the “cellular suffering (in words)” value (hepatocytes; hepatocytes treated with DEM then test substance) was “a cellular suffering (cellular dilatation without appearance of vesicles) was at first detected, which disappeared after few tens of minutes”. For the same compound, the “cellular toxicity (in words)” value (hepatocytes; in vitro, up to 5 mM) was “does not cause cellular toxicity and, at least in vitro, is very well tolerated”.
